Data published in PubChem BioAssay (NCI).
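Interpolation was linear, between the two tested concentrations surrounding the appropriate level; five concentrations were tested over 48 hours in 96-well plates. TGI denotes the concentration required for complete inhibition of growth.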

Tests used:
Assay in all cases: growth of human tumour cells (NCI), 48 h
KM12 colon = tested on: KM12 colon
MALME-3M melanoma = tested on: MALME-3M melanoma
IGROV1 ovarian = tested on: IGROV1 ovarian
NCI-H226 lung = tested on: NCI-H226 lung
OVCAR-5 ovarian = tested on: OVCAR-5 ovarian
LOX IMVI melanoma = tested on: LOX IMVI melanoma
CAKI-1 renal = tested on: CAKI-1 renal
UO-31 renal = tested on: UO-31 renal
DLD-1 colon = tested on: DLD-1 colon
NCI-H460 lung = tested on: NCI-H460 lung
HOP-92 NSCLC = tested on: HOP-92 NSCLC
SK-MEL-2 melanoma = tested on: SK-MEL-2 melanoma
HOP-18 NSCLC = tested on: HOP-18 NSCLC
CCRF-CEM leukemia = tested on: CCRF-CEM leukemia
OVCAR-4 ovarian = tested on: OVCAR-4 ovarian
RPMI-8226 leukemia = tested on: RPMI-8226 leukemia
XF 498 CNS = tested on: XF 498 CNS
NCI-H23 lung = tested on: NCI-H23 lung
U251 CNS = tested on: U251 CNS
HL-60(TB) leukemia = tested on: HL-60(TB) leukemia
SNB-78 CNS = tested on: SNB-78 CNS
HCT-116 colon = tested on: HCT-116 colon
UACC-257 melanoma = tested on: UACC-257 melanoma
HCT-15 colon = tested on: HCT-15 colon
K-562 leukemia = tested on: K-562 leukemia
M14 melanoma = tested on: M14 melanoma
SK-MEL-28 melanoma = tested on: SK-MEL-28 melanoma
DMS 114 small cell lung = tested on: DMS 114 small cell lung
RXF-631 renal = tested on: RXF-631 renal
A549 NSCLC = tested on: A549 NSCLC
SR leukemia = tested on: SR leukemia
ACHN renal = tested on: ACHN renal
OVCAR-8 ovarian = tested on: OVCAR-8 ovarian
LXFL 529 NSCLC = tested on: LXFL 529 NSCLC
EKVX NSCLC = tested on: EKVX NSCLC
M19-MEL melanoma = tested on: M19-MEL melanoma
SW-620 colon = tested on: SW-620 colon
SK-MEL-5 melanoma = tested on: SK-MEL-5 melanoma
SF-268 CNS = tested on: SF-268 CNS
SF-539 CNS = tested on: SF-539 CNS
COLO 205 colon = tested on: COLO 205 colon
NCI-H522 lung = tested on: NCI-H522 lung
UACC-62 melanoma = tested on: UACC-62 melanoma
HT29 colon = tested on: HT29 colon
A498 renal = tested on: A498 renal
TK-10 renal = tested on: TK-10 renal
HCC-2998 colon = tested on: HCC-2998 colon
SF-295 CNS = tested on: SF-295 CNS
SK-OV-3 ovarian = tested on: SK-OV-3 ovarian
SN12C renal = tested on: SN12C renal
786-0 renal = tested on: 786-0 renal
MOLT-4 leukemia = tested on: MOLT-4 leukemia
SNB-75 CNS = tested on: SNB-75 CNS
RXF 393 renal = tested on: RXF 393 renal
KM20L2 colon = tested on: KM20L2 colon
SNB-19 CNS = tested on: SNB-19 CNS
HOP-62 NSCLC = tested on: HOP-62 NSCLC
DMS 273 small cell lung = tested on: DMS 273 small cell lung

Measured: TGI

N#C/C(=C/c1ccco1)C(=O)c1ccccc1
> 100 µM: KM12 colon | MALME-3M melanoma | IGROV1 ovarian | NCI-H226 lung | OVCAR-5 ovarian | LOX IMVI melanoma | CAKI-1 renal | UO-31 renal | DLD-1 colon | NCI-H460 lung | HOP-92 NSCLC | SK-MEL-2 melanoma | HOP-18 NSCLC | CCRF-CEM leukemia | OVCAR-4 ovarian | RPMI-8226 leukemia | XF 498 CNS | NCI-H23 lung | U251 CNS | HL-60(TB) leukemia | SNB-78 CNS | HCT-116 colon | UACC-257 melanoma | HCT-15 colon | K-562 leukemia | M14 melanoma | SK-MEL-28 melanoma | DMS 114 small cell lung | RXF-631 renal | A549 NSCLC | SR leukemia | ACHN renal | OVCAR-8 ovarian | LXFL 529 NSCLC | EKVX NSCLC | M19-MEL melanoma | SW-620 colon | SK-MEL-5 melanoma | SF-268 CNS | SF-539 CNS | COLO 205 colon | NCI-H522 lung | UACC-62 melanoma | HT29 colon | A498 renal | TK-10 renal | HCC-2998 colon | SF-295 CNS | SK-OV-3 ovarian | SN12C renal | 786-0 renal | MOLT-4 leukemia | SNB-75 CNS

CN(C)CCc1ccc(Cl)cc1Cl
> 100 µM: KM12 colon | MALME-3M melanoma | IGROV1 ovarian | RXF 393 renal | OVCAR-5 ovarian | LOX IMVI melanoma | CAKI-1 renal | UO-31 renal | DLD-1 colon | NCI-H460 lung | HOP-92 NSCLC | SK-MEL-2 melanoma | HOP-18 NSCLC | CCRF-CEM leukemia | OVCAR-4 ovarian | RPMI-8226 leukemia | XF 498 CNS | NCI-H23 lung | U251 CNS | HL-60(TB) leukemia | HCT-116 colon | UACC-257 melanoma | HCT-15 colon | K-562 leukemia | M14 melanoma | SK-MEL-28 melanoma | DMS 114 small cell lung | RXF-631 renal | A549 NSCLC | SR leukemia | ACHN renal | OVCAR-8 ovarian | LXFL 529 NSCLC | EKVX NSCLC | M19-MEL melanoma | SW-620 colon | KM20L2 colon | SK-MEL-5 melanoma | SF-268 CNS | SF-539 CNS | COLO 205 colon | NCI-H522 lung | UACC-62 melanoma | HT29 colon | A498 renal | TK-10 renal | HCC-2998 colon | SF-295 CNS | SK-OV-3 ovarian | SN12C renal | 786-0 renal | MOLT-4 leukemia | SNB-19 CNS | SNB-75 CNS | HOP-62 NSCLC

N/N=C(/Cc1ccccc1)NNC(N)=S
> 100 µM: KM12 colon | MALME-3M melanoma | DMS 273 small cell lung | IGROV1 ovarian | NCI-H226 lung | RXF 393 renal | OVCAR-5 ovarian | LOX IMVI melanoma | UO-31 renal | DLD-1 colon | NCI-H460 lung | HOP-92 NSCLC | SK-MEL-2 melanoma | HOP-18 NSCLC | CCRF-CEM leukemia | OVCAR-4 ovarian | RPMI-8226 leukemia | XF 498 CNS | U251 CNS | HL-60(TB) leukemia | UACC-257 melanoma | HCT-15 colon | K-562 leukemia | M14 melanoma | SK-MEL-28 melanoma | DMS 114 small cell lung | RXF-631 renal | A549 NSCLC | ACHN renal | OVCAR-8 ovarian | LXFL 529 NSCLC | EKVX NSCLC | M19-MEL melanoma | SW-620 colon | KM20L2 colon | SF-268 CNS | SF-539 CNS | COLO 205 colon | UACC-62 melanoma | HT29 colon | A498 renal | TK-10 renal | HCC-2998 colon | SF-295 CNS | SK-OV-3 ovarian | 786-0 renal | MOLT-4 leukemia | SNB-75 CNS | HOP-62 NSCLC
76 µM: NCI-H522 lung
